Measured values as given in patent publication US20210205312A1, “TREATMENT OF MEMBRANOUS NEPHROPATHY, IGG4-RELATED DISEASE, AND ANTIPHOSPHOLIPID SYNDROME USING BTK INHIBITOR 2-[(3R)-3-[4-AMINO-3-(2-FLUORO-4-PHENOXY-PHENYL)PYRAZOLO[3,4-d]PYRIMIDIN-1-YL]PIPERIDINE-1-CARBONYL]-4-METHYL-4-[4-(OXETAN-3-YL)PIPERAZIN-1-YL]PENT-2-ENENITRILE” (Principia Biopharma Inc., priority 2020, published 2021).
Like-named read-outs stand apart in the source and are kept apart here.

Experiments:
[1] = system: anti-GBM glomerulonephritis; assay: Mouse anti-GBM glomerulonephritis model; assay type: in vivo
Experimental: The mouse anti-GBM glomerulonephritis model involves antibody mediated autoimmunity, and the model is histologically and mechanistically similar to glomerulonephritis in humans. The model also includes kidney deposition of immune complexes (IC), targeting glomerular basement membrane. The efficacy of Compound (I) (also referred to as PRN1008) relative to the corticosteroid dexamethasone (Dex) was tested in a mouse anti-GBM glomerulonephritis model according to the design shown in FIG. 1. Briefly, to induce glomerulonephritis, mice were pre-sensitized with sheep IgG/FCA (Study Day −5). Five days later (Study Day 0), the mice received anti-GBM sheep IgG. Treatment with vehicle, Compound (I), or Dex with various dosage regimes (Compound (I): 10 mg/kg, 20 mg/kg, or 40 mg/kg QD or 20 mg/kg BID; Dex: 1 mg/kg QD; Vehicle: QD or BID) began at Study Day −1, one day prior to injection with anti-GBM sheep IgG. Treatment continued until Study Day 10, for […] treatment in total. Urine protein analysis was conducted on Study Days −6, −4, −1, 1, 3, 6, 8, and 10. Following Study Day 10, mice serum BUN levels were analyzed as a measure of kidney function, and kidney histology was performed.

[2] = system: CD20+ B-cells in human whole blood; assay: B-cell activation: anti-IgM-induced CD69 expression on CD20+ B-cells in human whole blood (flow cytometry); assay type: cell-based; settings: read-out: IC50 for inhibition of CD69 B-cell expression
Experimental: Compound (I) can inhibit B-cell activation, BCR dependent B-cell proliferation, and de novo antibody production. To determine the functional activity of Compound (I), the ability of the compound to inhibit B-cell activation as assessed by anti-IgM-induced CD69 expression in CD20+ B-cells in human whole blood was determined (FIG. 7). […]. As an additional measure of the effects of Compound (I) on B-cell function, the ability of Compound (I) to inhibit B-cell receptor (BCR)-induced human B-cell proliferation was determined. […]. A randomized multicenter trial comparing low-dose prednisolone versus observation for prevention of recurrences in adult immune thrombocytopenia. Clin Appl Thromb Hemost 24: 867-873.).

ADCC = assay: Antibody-dependent cell-mediated cytotoxicity (ADCC) in combination with anti-CD20 antibodies; assay type: cell-based
[3] = system: enriched B-cells from healthy volunteers; assay: Inhibition of B-cell antibody production (IgG and IgM AlphaLISA); settings: for IC50: Homo sapiens, B-cell, 168 h
Experimental: B-cells were enriched from leukocyte concentrate of TrimaAccel® LRS chamber recovered after a plateletpheresis procedure from healthy volunteers (Stanford Blood Center, Palo Alto, Calif.) using the Straight from LRSC CD19 Microbead Kit (Miltenyi Biotech). […] IC50 was calculated in GraphPad Prism with non-linear regression using “log (inhibitor) vs. response—Variable slope (four parameters)” analysis with no constraints.

[4] = 10, 20 or 40 mg/kg QD or 20 mg/kg BID, Study Day -1 to 10

CC(C)(C=C(C#N)C(=O)N1CCC[C@@H](n2nc(-c3ccc(Oc4ccccc4)cc3F)c3c(N)ncnc32)C1)N1CCN(C2COC2)CC1 [Compound (I), 2-[(3R)-3-[4-amino-3-(2-fluoro-4-phenoxy-phenyl)pyrazolo[3,4-d]pyrimidin-1-yl]piperidine-1-carbonyl]-4-methyl-4-[4-(oxetan-3-yl)piperazin-1-yl]pent-2-enenitrile]
inhibition of kidney weight gain (surrogate for kidney inflammation) [1, 4]: dose dependent inhibition
inhibition of severe proteinuria [1, 4]: dose dependent inhibition
inhibition of serum blood urea nitrogen (BUN) levels ([1]; 10, 20 or 40 mg/kg QD or 20 mg/kg BID, Study Day -1 to 10, BUN after Day 10): dose dependent inhibition
kidney pathology (histology) ([1]; compared with Dex 1 mg/kg QD): significantly reduced kidney pathology, superior to a steroid comparator (Dex)
proteinuria during the study ([1]; urine protein analysis up to Study Day 10): reduced proteinuria
IC50 [2]: 126 ± 32 nM
effect on ADCC (ADCC): did not block
T-dependent and T-independent antibody production (IgG and IgM) ([3]; CpG, TNP-LPS or anti-CD40+IL-21 stimulation, 7 days): inhibited
IC50 ([3]; read-out: IgG antibody production IC50, CpG (TLR-9 agonist) stimulation, T-independent, 7 days): 50 ± 90 nM
IC50 ([3]; read-out: IgG antibody production IC50, TNP-LPS stimulation, T-independent, 7 days): 300 ± 600 nM
IC50 ([3]; read-out: IgG antibody production IC50, anti-CD40 + IL-21 stimulation (T-cell dependent), 7 days): 20 ± 20 nM
IC50 ([3]; read-out: IgM antibody production IC50, CpG (TLR-9 agonist) stimulation, T-independent, 7 days): 1 ± 1 nM
IC50 ([3]; read-out: IgM antibody production IC50, TNP-LPS stimulation, T-independent, 7 days): 200 ± 600 nM
IC50 ([3]; read-out: IgM antibody production IC50, anti-CD40 + IL-21 stimulation (T-cell dependent), 7 days): 800 ± 1000 nM
